Measured values from PubChem BioAssay (NCI).
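Assay format: 96-well plates, 48-hour exposure. The concentration for 50% growth inhibition is given as GI50. TGI: total growth inhibition.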

How the values were obtained:
Test in all cases: inhibition of tumour cell growth, NCI panel, 48 h
[1] = system: SF-539 CNS
[2] = system: SF-268 CNS
[3] = system: SNB-19 CNS
[4] = system: PC-3 prostate
[5] = system: HS 578T breast
[6] = system: MDA-MB-231 breast
[7] = system: IGROV1 ovarian
[8] = system: MCF7 breast
[9] = system: UACC-257 melanoma
[10] = system: MOLT-4 leukemia
[11] = system: EKVX NSCLC
[12] = system: NCI-H23 lung
[13] = system: SK-MEL-2 melanoma
[14] = system: LOX IMVI melanoma
[15] = system: TK-10 renal
[16] = system: M14 melanoma
[17] = system: SR leukemia
[18] = system: UO-31 renal
[19] = system: SN12C renal
[20] = system: SK-MEL-28 melanoma
[21] = system: DU-145 prostate
[22] = system: KM12 colon
[23] = system: OVCAR-8 ovarian
[24] = system: U251 CNS
[25] = system: HT29 colon
[26] = system: SF-295 CNS
[27] = system: NCI/ADR-RES ovarian
[28] = system: HCC-2998 colon
[29] = system: NCI-H522 lung

CCc1nn2c(C)cc(C)nc2c1Cc1ccc(/C=C/CN2CCN(CCOCCOCCN3CCN(C/C=C/c4ccc(Cc5c(CC)nn6c(C)cc(C)nc56)cc4)CC3)CC2)cc1
GI50 [1]: 1.72 µM | TGI [1]: 3.19 µM | GI50 [2]: 2.94 µM | TGI [2]: 8.26 µM | GI50 [3]: 2.94 µM | TGI [3]: 7.95 µM | GI50 [4]: 2.81 µM | TGI [4]: 7.76 µM | GI50 [5]: 5.14 µM | TGI [5]: 12.1 µM | GI50 [6]: 1.91 µM | TGI [6]: 4.13 µM | GI50 [7]: 2.8 µM | TGI [7]: 7.64 µM | GI50 [8]: 1.7 µM | TGI [8]: 3.35 µM | GI50 [9]: 1.74 µM | TGI [9]: 3.4 µM | GI50 [10]: 2.16 µM | TGI [10]: 5.13 µM | GI50 [11]: 4.26 µM | TGI [11]: 8.84 µM | GI50 [12]: 1.86 µM | TGI [12]: 3.65 µM | GI50 [13]: 5.35 µM | TGI [13]: 9.95 µM | GI50 [14]: 1.68 µM | TGI [14]: 3.16 µM | GI50 [15]: 5.72 µM | TGI [15]: 10.4 µM | GI50 [16]: 1.76 µM | TGI [16]: 3.37 µM | GI50 [17]: 1.81 µM | TGI [17]: 4.6 µM | GI50 [18]: 1.42 µM | TGI [18]: 3.05 µM | GI50 [19]: 1.86 µM | TGI [19]: 3.99 µM | GI50 [20]: 1.75 µM | TGI [20]: 3.2 µM | GI50 [21]: 2.88 µM | TGI [21]: 7.21 µM | GI50 [22]: 3.28 µM | TGI [22]: 7.96 µM | GI50 [23]: 1.92 µM | TGI [23]: 3.92 µM | GI50 [24]: 1.85 µM | TGI [24]: 3.76 µM | GI50 [25]: 1.66 µM | TGI [25]: 3.26 µM | GI50 [26]: 2.95 µM | TGI [26]: 7.6 µM | GI50 [27]: 2.74 µM | TGI [27]: 7.88 µM | GI50 [28]: 1.77 µM | TGI [28]: 3.48 µM | GI50 [29]: 1.7 µM | TGI [29]: 3.39 µM
